In ChEMBL document CHEMBL3813594, “Design and structure-activity relationships of novel inhibitors of human rhinovirus 3C protease” (Bioorg Med Chem Lett, 2016) one finds EC50 data, which are given here for 11 molecules.

The subject of one assay is rhinovirus A25. Description: Antiviral activity against human rhinovirus 25 assessed as reduction in viral infection in human HeLa H1 cells pretreated for 1 to 2 hrs with virus followed by cell addition measured after 48 hrs by Celltiter-Glo reagent based assay. The conditions noted are these: Rhinovirus A. The class given is functional, organism-based. On the technique in general: In ATP-based viability assays light output follows the ATP content of the culture.

Assay [1] concerns rhinovirus A16. Nature of the assay: Antiviral activity against human rhinovirus 16 assessed as reduction in viral infection in human HeLa H1 cells pretreated for 1 to 2 hrs with virus followed by cell addition measured after 48 hrs by Celltiter-Glo reagent based assay. The class given is functional, organism-based.
The next assay concerns rhinovirus A41. Nature of the assay: Antiviral activity against human rhinovirus 41 assessed as reduction in viral infection in human HeLa H1 cells pretreated for 1 to 2 hrs with virus followed by cell addition measured after 48 hrs by Celltiter-Glo reagent based assay. The class given is functional, organism-based. The settings on record: Rhinovirus A.
The nature of assay [2]: Antiviral activity against human rhinovirus 7 assessed as reduction in viral infection in human HeLa H1 cells pretreated for 1 to 2 hrs with virus followed by cell addition measured after 48 hrs by Celltiter-Glo reagent based assay. The class given is functional, Human rhinovirus A7. The conditions noted are these: Rhinovirus A.
Assay [3] has as its system rhinovirus A2. Description: Antiviral activity against human rhinovirus 2 assessed as reduction in viral infection in human HeLa H1 cells pretreated for 1 to 2 hrs with virus followed by cell addition measured after 48 hrs by Celltiter-Glo reagent based assay. The class given is functional, organism-based.
A short description of assay [4]: Antiviral activity against human rhinovirus 17 assessed as reduction in viral infection in human HeLa H1 cells pretreated for 1 to 2 hrs with virus followed by cell addition measured after 48 hrs by Celltiter-Glo reagent based assay. The class given is functional, Human rhinovirus B17.
Another assay relates to rhinovirus A85. Nature of the assay: Antiviral activity against human rhinovirus 85 assessed as reduction in viral infection in human HeLa H1 cells pretreated for 1 to 2 hrs with virus followed by cell addition measured after 48 hrs by Celltiter-Glo reagent based assay. The class given is functional, organism-based. The settings on record: Rhinovirus A.
The next assay relates to rhinovirus B14. Nature of the assay: Antiviral activity against human rhinovirus 14 assessed as reduction in viral infection in human HeLa H1 cells pretreated for 1 to 2 hrs with virus followed by cell addition measured after 48 hrs by Celltiter-Glo reagent based assay. The class given is functional, organism-based. The conditions noted are these: Rhinovirus B.
Assay [5] is described as follows: Antiviral activity against human rhinovirus 100 assessed as reduction in viral infection in human HeLa H1 cells pretreated for 1 to 2 hrs with virus followed by cell addition measured after 48 hrs by Celltiter-Glo reagent based assay. The class given is functional, Human rhinovirus A100. The conditions noted are these: Rhinovirus A.
Assay [6] is described as follows: Antiviral activity against human rhinovirus 8 assessed as reduction in viral infection in human HeLa H1 cells pretreated for 1 to 2 hrs with virus followed by cell addition measured after 48 hrs by Celltiter-Glo reagent based assay. The conditions noted are these: Rhinovirus A. The class given is functional, Human rhinovirus A8.
For assay [7], the system named is rhinovirus A16. Nature of the assay: Antiviral activity against human rhinovirus 16 assessed as reduction in viral infection in human HeLa H1 cells after 2 to 5 days by XTT reduction assay. The conditions noted are these: Rhinovirus A. The class given is functional, organism-based.
The subject of assay [8] is rhinovirus A2. Description: Antiviral activity against human rhinovirus 2 assessed as reduction in viral infection in human HeLa H1 cells after 2 to 5 days by XTT reduction assay. The class given is functional, organism-based. The settings on record: Rhinovirus A.
Assay [9] in a line: Antiviral activity against human rhinovirus 17 assessed as reduction in viral infection in human HeLa H1 cells after 2 to 5 days by XTT reduction assay. The class given is functional, cell-based, Human rhinovirus B17. The settings on record: Rhinovirus B. Background: Tetrazolium dyes change colour on reduction, which living cells bring about.

The structures appear in SMILES notation.

Usually EC50 stands for the midpoint of the concentration-response curve. Turning to `CCOC(=O)/C=C/[C@H](C[C@@H]1CCNC1=O)NC(=O)[C@@H]1[C@@H](c2ccccc2)CCN1C(=O)[C@@H](NC(=O)c1cc(C)on1)C(C)C`, the 50% effective concentration (EC50) was 4500 nM in the assay with rhinovirus A25; 3000 nM in the assay on rhinovirus A16 [1] (Rhinovirus A, HeLa H1); 4500 nM in the assay with rhinovirus A41; 8300 nM in assay [2]; 8400 nM with rhinovirus A2 [3] (Rhinovirus A, HeLa H1); 700 nM in [4] (Rhinovirus B, HeLa H1). Also, the EC50 in the assay with rhinovirus A85 is 9300 nM; in the assay with rhinovirus B14, 2500 nM; in assay [5] it was 6500 nM; in assay [6], 3500 nM.
As to `CCOC(=O)/C=C/[C@H](C[C@@H]1CCNC1=O)NC(=O)[C@@H]1[C@@H](c2ccccc2)CN1C(=O)[C@@H](NC(=O)c1cc(C)on1)C(C)C` (stereo in doubt; 10), the EC50 in the assay with rhinovirus A25 is 100 nM; in the assay with rhinovirus A16 [1] (hela h1), 300 nM; in the assay with rhinovirus A41, 530 nM; in [2], 420 nM; in the assay on rhinovirus A2 [3] (hela h1), 300 nM; in assay [4] (hela h1), 90 nM. Further, the EC50 in the assay on rhinovirus A85 turned out to be 1140 nM; in the assay with rhinovirus B14, 91 nM; in assay [5], 470 nM; in assay [6] it was 170 nM.
As for `CCOC(=O)/C=C/[C@H](C[C@@H]1CCNC1=O)NC(=O)[C@@H]1C[C@@H](CC#N)CN1C(=O)[C@@H](NC(=O)c1cc(C)on1)C(C)C`, the EC50 in the assay with rhinovirus A16 [1] (Rhinovirus A, HeLa H1) came out at 199 nM; in the assay on rhinovirus A2 [3] (Rhinovirus A, HeLa H1), 430 nM; in assay [4] (Rhinovirus B, HeLa H1), 500 nM.
Regarding `CCOC(=O)/C=C/[C@H](C[C@@H]1CCNC1=O)NC(=O)[C@@H]1CCCN1C(=O)[C@@H](NC(=O)c1cc(C)on1)C(C)C`, the EC50 worked out at 1890 nM in the assay on rhinovirus A25; 400 nM in the assay on rhinovirus A16 [1] (Rhinovirus A, HeLa H1); 1450 nM in the assay with rhinovirus A41; 1300 nM in assay [2]; 1390 nM with rhinovirus A2 [3] (Rhinovirus A, HeLa H1); 230 nM in [4] (Rhinovirus B, HeLa H1). In addition, the EC50 turned out to be 4200 nM in the assay with rhinovirus A85, 470 nM with rhinovirus B14, 1800 nM in assay [5] and 590 nM in assay [6].
For `CCOC(=O)/C=C/[C@H](C[C@@H]1CCNC1=O)NC(=O)[C@@H]1C[C@@H](Cc2ccccc2)CN1C(=O)[C@@H](NC(=O)c1cc(C)on1)C(C)C`, the EC50 in the assay on rhinovirus A16 [1] (Rhinovirus A, HeLa H1) was 47 nM; in the assay with rhinovirus A2 [3] (Rhinovirus A, HeLa H1), 300 nM; in assay [4] (Rhinovirus B, HeLa H1) it was 190 nM.
Turning to `CCOC(=O)/C=C/[C@H](C[C@@H]1CCNC1=O)NC(=O)[C@@H]1C[C@@H](Oc2ccccc2)CN1C(=O)[C@@H](NC(=O)c1cc(C)on1)C(C)C`, the EC50 was determined as 59 nM in the assay with rhinovirus A16 [1] (Rhinovirus A, HeLa H1); 270 nM with rhinovirus A2 [3] (Rhinovirus A, HeLa H1); 260 nM in assay [4] (Rhinovirus B, HeLa H1).
As for `CCOC(=O)/C=C/[C@H](C[C@@H]1CCNC1=O)NC(=O)[C@@H]1C[C@@H](C2CCCCC2)CN1C(=O)[C@@H](NC(=O)c1cc(C)on1)C(C)C`, the EC50 with rhinovirus A25 was found to be 9 nM; in the assay on rhinovirus A16 [1] (Rhinovirus A, HeLa H1), 15 nM; in the assay with rhinovirus A41, 90 nM; in assay [2], 47 nM; in the assay on rhinovirus A2 [3] (Rhinovirus A, HeLa H1), 46 nM; in assay [4] (Rhinovirus B, HeLa H1), 7 nM. Further, the concentration for a half-maximal effect (EC50) with rhinovirus A85 stood at 94 nM; in the assay on rhinovirus B14, 11 nM; in assay [5], 80 nM; in assay [6], 22 nM.
As to `CCOC(=O)/C=C/[C@H](C[C@@H]1CCNC1=O)NC(=O)[C@@H]1C[C@@H](c2ccccc2)CN1C(=O)[C@@H](NC(=O)c1cc(C)on1)C(C)C`, the EC50 came out at 19 nM in the assay with rhinovirus A25; 24 nM with rhinovirus A16 [1] (Rhinovirus A, HeLa H1); 130 nM with rhinovirus A41; 81 nM in [2]; 140 nM with rhinovirus A2 [3] (Rhinovirus A, HeLa H1); 11 nM in assay [4] (Rhinovirus B, HeLa H1). Also, the EC50 was 250 nM in the assay with rhinovirus A85, 13 nM in the assay on rhinovirus B14, 110 nM in assay [5] and 37 nM in [6].
As for `CCOC(=O)/C=C/[C@H](C[C@@H]1CCNC1=O)NC(=O)[C@@H]1CC[C@@H](c2ccccc2)N1C(=O)[C@@H](NC(=O)c1cc(C)on1)C(C)C`, the EC50 in the assay with rhinovirus A16 [1] (Rhinovirus A, HeLa H1) stood at 260 nM; in the assay with rhinovirus A2 [3] (Rhinovirus A, HeLa H1) it was 1900 nM; in assay [4] (Rhinovirus B, HeLa H1), 150 nM.
Take `CCOC(=O)/C=C/[C@H](C[C@@H]1CCNC1=O)NC(=O)[C@@H]1[C@@H](c2ccccc2)CN1C(=O)[C@@H](NC(=O)c1cc(C)on1)C(C)C` (stereo in doubt; 11): the EC50 (in the assay on rhinovirus A16 [1] (hela h1); in the assay with rhinovirus A2 [3] (hela h1); in [4] (hela h1)) was more than 50000 nM each time.
In the case of `CCOC(=O)/C=C/[C@H](C[C@@H]1CCNC1=O)NC(=O)[C@@H](CC(=O)[C@@H](NC(=O)c1cc(C)on1)C(C)C)Cc1ccc(F)cc1` [RUPINTRIVIR], the results for the EC50 (in the assay with rhinovirus A16 [7]; in the assay with rhinovirus A2 [8]; in [9]) were 14 nM, 12 nM and 14 nM, respectively.
